Results from the NIST ThermoML archive (doi:10.1016/j.jct.2018.12.044).
Numbers after ± are expanded uncertainties.

Conditions: Crystal; DTA

Normal melting temperature: 194.36 ± 6 °C
Structure (SMILES): CC[C@H]1OC(=O)[C@H](C)[C@@H](O[C@H]2C[C@@](C)(OC)[C@@H](O)[C@H](C)O2)[C@H](C)[C@@H](O[C@@H]2O[C@H](C)C[C@H](N(C)C)[C@H]2O)[C@](C)(O)C[C@@H](C)[C@@H]2N[C@@H](COCCOC)O[C@H]([C@H]2C)[C@]1(C)O [Dirithromycin]
